From US8252793B2, “Bradykinin receptor agonists and uses thereof to treat ocular hypertension and glaucoma” (Alcon Research, Ltd., priority 2010, dated 2012)
Like-named read-outs stand apart in the source and are kept apart here.

How the values were obtained:
[1] = molecular target: T1, recombinant human bradykinin B2 receptor (Homo sapiens, UniProt P30411); assay: [3H]-BK competition radioligand binding to human cloned B2 receptor (CHO cell membranes)
T1 construct: expressed in transfected cells; host or cells: Chinese hamster ovary (CHO) cells, membrane homogenates
T1 sequence (P30411 1-391): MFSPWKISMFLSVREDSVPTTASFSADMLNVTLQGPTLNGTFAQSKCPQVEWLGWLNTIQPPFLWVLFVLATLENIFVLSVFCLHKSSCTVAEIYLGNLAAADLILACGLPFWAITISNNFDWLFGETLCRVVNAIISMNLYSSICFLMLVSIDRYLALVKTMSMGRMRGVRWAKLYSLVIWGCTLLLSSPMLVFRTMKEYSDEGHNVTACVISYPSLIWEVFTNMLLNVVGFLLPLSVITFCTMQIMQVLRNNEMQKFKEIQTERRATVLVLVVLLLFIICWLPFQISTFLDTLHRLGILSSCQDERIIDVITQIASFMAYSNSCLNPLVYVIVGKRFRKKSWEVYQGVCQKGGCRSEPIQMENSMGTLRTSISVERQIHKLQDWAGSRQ
Protocol: Chinese hamster ovary (CHO) cell membrane homogenates (2.5 μg protein) expressing the recombinant human bradykinin B2 receptor were incubated for 60 min at 23° C. with 0.2 nM [^3H]-bradykinin (95.5 Ci/mmole, PerkinElmer) in the absence or presence of the test compound in a buffer containing 50 mM Tris/HCl (pH 7.4), 0.2 g/L 1-10-phenanthroline and 0.1% BSA. All reagent and test compound additions to the assay plates were made using Biomek 3000 robotic workstations (Beckman Instruments, Fullerton, Calif.). Nonspecific binding was determined in the presence of 1 μM unlabeled bradykinin. Following the incubation, the assay was terminated by rapid filtration under vacuum through glass fiber filters (GF/C, PerkinElmer) presoaked with 0.3% polyethyleneimine and rinsed several times with an ice-cold 50 mM Tris-HCl buffer using a 96-sample cell harvester (Tomtec). The filters were air-dried and the radioactivity counted in a beta-scintillation counter (Topcount, PerkinElmer) using a scintillation cocktail (Microscint 20, PerkinElmer) (Sharif and Whiting, Neurochem. Int. 18: 89-96, 1991). Competitive binding inhibition curves were generated using a 7-point concentration—response of test compound in duplicate. Bradykinin peptide was also tested as an internal control in the assay. The data were analyzed using nonlinear, iterative curve-fitting to obtain the potency and intrinsic activities of the test agents as previously described (Sharif et al. J. Pharmacol. Exp. Ther. 286: 1094-1102, 1998; Sharif et al. Invest Ophthalmol. Vis. Sci. 39:2562-2571, 1998; Kelly et al. J. Pharmacol. Exp. Ther. 304: 238-245, 2003). Determined IC50 values were converted to Ki values using the standard Cheng-Prusoff equation.

[2] = molecular target: T2, BK receptors in human ciliary muscle cells (h-CM) (Homo sapiens, UniProt P30411); assay: Functional assay measuring [Ca2+]i mobilization (FLIPR) in h-CM cells; format: cell-based; details: class symbols (in μM), read-out: CaM (EC50)
T2 construct: h-CM cells expressing BK receptors were seeded; endogenous in cells; host or cells: human ciliary muscle (h-CM) cells
T2 sequence (P30411 1-391): T1 sequence (P30411 1-391)
Protocol: On the day of the experiment, media was removed, cells were rinsed and 50 μL of serum-free media added. One vial of FLIPR Calcium Assay Kit dye was reconstituted in 50 mL of a FLIPR buffer consisting of Hank's Balanced Salt Solution (HBSS), 20 mM HEPES, and 2.5 mM probenecid, pH 7.4. Cells were loaded with the calcium-sensitive dye by addition of an equal volume (50 μL) to each well of the 96-well plate and incubated with dye for 1 h at 23° C. […] After this time, the test compound plate and cell plate were placed in a Fluorescence Imaging Plate Reader (FLIPR-Tetra®) instrument (Molecular Devices/MDSPharma, Sunnyvale, Calif.). At the beginning of an experimental run, a signal test was performed to check the basal fluorescence signal from the dye-loaded cells and the uniformity of the signal across the plate. […] An aliquot (25 μL) of the test compound was added to the existing 100 μL dye-loaded cells at a dispensing speed of 50 μL/sec. Intracellular calcium mobilization was measured by monitoring real-time changes in cellular fluorescence upon test compound addition. Fluorescence data were collected in real-time at 1.0 sec intervals for the first 60 seconds and at 6.0 second intervals for an additional 120 seconds. Baseline fluorescence readings were normalized across the plate and background-corrected from negative control wells. […] EC50 values were determined by 4-parameter nonlinear curve fitting of the concentration-response curve. Calibration of the instrument was performed using manufacturer's standard procedures.

[3] = system: primary human ciliary muscle cells (h-CM); assay: Total prostaglandin (PG) release from primary h-CM cells (EIA); format: cell-based; details: 1 hour at 37° C., class symbols (in μM)
Protocol: BK agonist compounds of Formula 1 were evaluated for the ability to induce prostaglandin (PG) release from primary human ciliary muscle cells (h-CM). Briefly, h-CM cells were grown to confluence in FNC-coated 24-well culture plates and serum-starved (0.8% FBS) for 24 hours prior to the experiment. Cells were stimulated with a 9-pt concentration-response (0.1 nM-10 μM) of bradykinin or BK agonist for 1 hour at 37° C. with subsequent sample recovery and processing for total PG measurement. Total PG measurement was determined using a total Prostaglandin Screening EIA kit (cat#514012) purchased from Cayman Chemical (Ann Arbor, Mich.). The assay was conducted according to the package insert from the manufacturer.

[4] = 0.2 nM [3H]-bradykinin, CHO membranes, 60 min 23° C., mean ± SEM or single value, Ki from IC50 by Cheng-Prusoff, read-out: [3H]-BK Binding to Human Cloned B2 Receptor (Ki)
[5] = same assay as E1, given as class symbols (in μM), read-out: [3H]-BK Binding to Human Cloned B2 Receptor (Ki, nM), class symbols

| Molecule | Ki [1, 4] [nM] | EC50 [2] [µM] | other results |
| --- | --- | --- | --- |
| COc1nc2c(OCc3c(C)ccc(N(C)C(=O)CNC(=O)CN4CCC(NC(C)=O)CC4)c3C)cccc2n1Cc1ccccn1 [Compound 51] | 701 | 0.1 to 1 |  |
| N=C(N)NCCC[C@H](NC(=O)[C@H](Cc1ccccc1)NC(=O)[C@@H]1CCCN1C(=O)[C@H](CO)NC(=O)[C@H](Cc1ccccc1)NC(=O)CNC(=O)[C@@H]1C[C@@H](O)CN1C(=O)[C@@H]1CCCN1C(=O)[C@@H](N)CCCNC(=N)N)C(=O)O [Hyp^3-BK, reference compound] |  |  | Ki [1]: 1.9 ± 1.1 nM; Ki ([1]; [3H]-BK Binding to Human Cloned B2 Receptor (Ki, nM), class symbols, same assay as E1, given as class symbols (in μM)): < 100 nM |
| NCCCC[C@H](N)C(=O)N[C@@H](CCCN=C(N)N)C(=O)N1CCC[C@H]1C(=O)N1CCC[C@H]1C(=O)NCC(=O)N[C@@H](Cc1ccccc1)C(=O)N[C@@H](CO)C(=O)N1CCC[C@H]1C(=O)N[C@@H](Cc1ccccc1)C(=O)N[C@@H](CCCN=C(N)N)C(=O)O [Lys-BK, reference compound] |  |  | Ki [1, 5]: < 100 nM |
| CCc1nc2c(OCc3c(Cl)ccc(N(C)C(=O)CNC(=O)CCN4CCN(C(=O)NC)CC4)c3Cl)cccn2c1C(O)c1ccccn1 (centres unmarked) [Compound 26] | 2140 ± 223 | 0.1 to 1 |  |
| COC(=O)Nc1ccc(CCC(=O)NCC(=O)N(C)c2ccc(C)c(COc3cccc4c3nc(OC)n4Cc3ccccn3)c2C)cn1 [Compound 6] | 10 ± 2 | < 0.1 | Ki [1, 5]: < 100 nM |
| CC(=O)Nc1ccc(CC(=O)NCC(=O)N(C)c2ccc(Cl)c(COc3cccc4c(OCc5ccccn5)cc(C)nc34)c2Cl)cc1 [Compound 50] | 15 | 0.1 to 1 |  |
| 3-(4-acetylpiperazin-1-yl)-N-(2-((2,4-dichloro-3-(((2-methoxy-1-(pyridin-2-ylmethyl)-1H-benzo[d]imidazol-4-yl)oxy)methyl)phenyl)(methyl)amino)-2-oxoethyl)propanamide [Compound 16] | 985 ± 473 | 0.1 to 1 | Ki [1, 5]: 100 to 1000 nM |
| CCc1nc2c(OCc3c(Cl)ccc(N(C)C(=O)CNC(=O)CNC4CCN(C(=O)NC)CC4)c3Cl)cccn2c1C(O)c1ccccn1 (centres unmarked) [Compound 23] | 1730 ± 428 | > 1 |  |
| COc1nc2c(OCc3c(Cl)ccc(N(C)C(=O)CNC(=O)CN4CCOCC4)c3Cl)cccc2n1Cc1ccccn1 [Compound 14, N-(2,4-dichloro-3-(((2-methoxy-1-(pyridin-2-ylmethyl)-1H-benzo[d]imidazol-4-yl)oxy)methyl)phenyl)-N-methyl-2-(2-morpholinoacetamido)acetamide] | 197 | 0.1 to 1 |  |
| CNC(=O)CN1CCN(CC(=O)NCC(=O)N(C)c2ccc(Cl)c(COc3cccc4c3nc(OC)n4Cc3ccccn3)c2Cl)CC1 [Compound 53] | 340 | 0.1 to 1 |  |
| CSCC[C@H](N)C(=O)N[C@@H](CCCCN)C(=O)N[C@@H](CCCNC(=N)N)C(=O)N1CCC[C@H]1C(=O)N1CCC[C@H]1C(=O)NCC(=O)N[C@@H](Cc1ccccc1)C(=O)N[C@@H](CO)C(=O)N1CCC[C@H]1C(=O)N[C@@H](Cc1ccccc1)C(=O)N[C@@H](CCCNC(=N)N)C(=O)O [Met-Lys-BK, reference compound] |  |  | Ki [1, 5]: < 100 nM |
| 4-((2-((2-((3-(((2-methoxy-1-(pyridin-2-ylmethyl)-1H-benzo[d]imidazol-4-yl)oxy)methyl)-2,4-dimethylphenyl)(methyl)amino)-2-oxoethyl)amino)-2-oxoethyl)amino)-N-methylpiperidine-1-carboxamide [Compound 21] | 881 ± 263 | 0.1 to 1 | Ki [1, 5]: 100 to 1000 nM |
| COc1nc2c(OCc3c(Cl)ccc(N(C)C(=O)CNC(=O)CCc4ccc(NS(C)(=O)=O)nc4)c3Cl)cccc2n1Cc1ccccn1 [Compound 5, N-(2-((2,4-dichloro-3-(((2-methoxy-1-(pyridin-2-ylmethyl)-1H-benzo[d]imidazol-4-yl)oxy)methyl)phenyl)(methyl)amino)-2-oxoethyl)-3-(6-(methylsulfonamido)pyridin-3-yl)propanamide] | 71 ± 30 | 0.1 to 1 |  |
| COc1nc2c(OCc3c(Cl)ccc(N(C)C(=O)CNC(=O)CCN4CCN(C(=O)N(C)C)CC4)c3Cl)cccc2n1Cc1ccccn1 [Compound 17] | 274 ± 69 | 0.1 to 1 |  |
| COC(=O)N1CCN(CCC(=O)NCC(=O)N(C)c2ccc(Cl)c(COc3cccc4c3nc(OC)n4Cc3ccccn3)c2Cl)CC1 [Compound 18] | 239 ± 150 | 0.1 to 1 |  |
| COc1nc2c(OCc3c(Cl)ccc(N(C)C(=O)CNC(=O)CN4CCC(NC(C)=O)CC4)c3Cl)cccc2n1Cc1ccccn1 [Compound 15, 2-(2-(4-acetamidopiperidin-1-yl)acetamido)-N-(2,4-dichloro-3-(((2-methoxy-1-(pyridin-2-ylmethyl)-1H-benzo[d]imidazol-4-yl)oxy)methyl)phenyl)-N-methylacetamide] | 467 | 0.1 to 1 |  |
| CNC(=O)C1CCN(CC(=O)NCC(=O)N(C)c2ccc(C)c(COc3cccc4c3nc(OC)n4Cc3ccccn3)c2C)CC1 [Compound 52] | 15.7 | 0.1 to 1 |  |

Second part, led by results:

| Ki [1, 4] [nM] | EC50 [2] [µM] | Molecule | other results |
| --- | --- | --- | --- |
| 984 | 0.1 to 1 | COc1nc2c(OCc3c(Cl)ccc(N(C)C(=O)CNC(=O)CCCN4CCN(C(C)=O)CC4)c3Cl)cccc2n1Cc1ccccn1 [Compound 55] |  |
|  | < 0.1 | COc1nc2c(OCc3c(Cl)ccc(N(C)C(=O)CNC(=O)CCCN4CCNC(=O)C4)c3Cl)cccc2n1Cc1ccccn1 [Compound 72] | EC50 ([3]; Homo sapiens, 1 h): > 1 µM |
|  | 0.1 to 1 | CNC(=O)c1ccc(CCC(=O)NCC(=O)N(C)c2ccc(Cl)c(COc3cccc4c(OCc5cn(C)cn5)cc(C)nc34)c2Cl)cn1 [Compound 87] | EC50 [3]: < 0.1 µM |
|  | < 0.1 | CNC(=O)c1ccc(CCC(=O)NCC(=O)N(C)c2ccc(Cl)c(COc3cccc4c3nc(OC)n4Cc3cn(C)cn3)c2Cl)cn1 [Compound 86] | EC50 ([3]; Homo sapiens, 1 h): < 0.1 µM |
| 455 | 0.1 to 1 | COc1nc2c(OCc3c(Cl)ccc(N(C)C(=O)CNC(=O)CCN4CCOCC4)c3Cl)cccc2n1Cc1ccccn1 [Compound 54] |  |
| 3150 | > 1 | COc1nc2c(OCc3c(Cl)ccc(N(C)C(=O)CNC(=O)CCN4CCNCC4)c3Cl)cccc2n1Cc1ccccn1 [Compound 58] |  |
| 2140 | 0.1 to 1 | CCc1nc2c(OCc3c(Cl)ccc(N(C)C(=O)CNC(=O)CCN4CCN(C(=O)NC)CC4)c3Cl)cccn2c1C(O)c1ccccn1 (centres unmarked) [Compound 59] |  |
|  | 0.1 to 1 | CCc1nc2c(OCc3c(C)ccc(N(C)C(=O)CNC(=O)CCN4CCN(C(=O)NC)CC4)c3C)cccc2n1Cc1ccccn1 [Compound 60] |  |
